According to ChEMBL document CHEMBL4414679, “Discovery of 4,6-pyrimidinediamine derivatives as novel dual EGFR/FGFR inhibitors aimed EGFR/FGFR1-positive NSCLC” (Eur J Med Chem, 2020):
Active and inactive are the calls of the source. The rule behind the calls is not given here.

Columns and labels:
[1] = target: T1, Epidermal growth factor receptor (Homo sapiens, UniProt P00533); test: Inhibition of N-terminal GST-tagged human EGFR cytoplasmic domain (669-1210 AA) expressed in baculovirus at 10 uM using FAM-labelled peptide as substrate pre-incubated for 10 mins followed by substrate addition by mobility shift assay relative to control
T1 sequence (P00533 whole entry, the tested form may be a part): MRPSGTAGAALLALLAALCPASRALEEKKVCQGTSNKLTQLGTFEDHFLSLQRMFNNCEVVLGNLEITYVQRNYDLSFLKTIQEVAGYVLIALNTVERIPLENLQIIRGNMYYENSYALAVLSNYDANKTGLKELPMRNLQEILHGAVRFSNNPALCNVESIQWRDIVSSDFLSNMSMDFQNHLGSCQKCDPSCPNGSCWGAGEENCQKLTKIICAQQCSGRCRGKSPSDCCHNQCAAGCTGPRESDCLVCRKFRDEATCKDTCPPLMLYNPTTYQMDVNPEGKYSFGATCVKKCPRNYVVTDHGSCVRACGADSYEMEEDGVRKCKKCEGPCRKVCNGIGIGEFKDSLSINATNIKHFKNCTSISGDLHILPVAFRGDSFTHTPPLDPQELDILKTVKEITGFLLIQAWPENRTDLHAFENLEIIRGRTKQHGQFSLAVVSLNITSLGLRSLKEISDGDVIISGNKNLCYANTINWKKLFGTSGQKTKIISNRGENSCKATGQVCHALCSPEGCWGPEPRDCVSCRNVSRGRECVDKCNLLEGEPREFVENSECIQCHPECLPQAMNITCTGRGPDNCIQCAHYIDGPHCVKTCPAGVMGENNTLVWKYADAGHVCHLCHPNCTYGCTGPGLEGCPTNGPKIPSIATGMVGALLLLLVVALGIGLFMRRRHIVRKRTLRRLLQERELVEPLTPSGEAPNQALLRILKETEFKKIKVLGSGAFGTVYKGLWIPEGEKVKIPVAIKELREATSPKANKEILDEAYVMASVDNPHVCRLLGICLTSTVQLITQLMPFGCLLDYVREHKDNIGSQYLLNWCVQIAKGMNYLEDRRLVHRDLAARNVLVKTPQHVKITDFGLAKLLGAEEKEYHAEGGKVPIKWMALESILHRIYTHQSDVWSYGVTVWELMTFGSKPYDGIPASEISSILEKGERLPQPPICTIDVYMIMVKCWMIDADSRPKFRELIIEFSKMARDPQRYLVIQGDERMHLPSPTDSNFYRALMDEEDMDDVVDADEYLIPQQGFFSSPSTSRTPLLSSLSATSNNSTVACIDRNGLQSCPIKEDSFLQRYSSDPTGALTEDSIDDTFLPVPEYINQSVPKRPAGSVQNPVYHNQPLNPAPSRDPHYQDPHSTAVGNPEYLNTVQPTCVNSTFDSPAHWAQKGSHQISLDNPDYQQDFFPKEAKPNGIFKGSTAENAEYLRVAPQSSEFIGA

NCI-H1581 [2] = test: Antiproliferative activity against human NCI-H1581 cells assessed as inhibition of cell growth at 10 uM incubated for 48 hrs by MTT assay relative to control; type: functional; details: NCI-H1581, 48 h
PC-9 = test: Antiproliferative activity against human PC9 cells incubated for 48 hrs by MTT assay; type: functional, cell-based; details: PC-9, 48 h
NCI-H520 = test: Antiproliferative activity against human NCI-H520 cells incubated for 48 hrs by MTT assay; type: functional, cell-based; details: NCI-H520, 48 h
NCI-H1581 [3] = test: Antiproliferative activity against human NCI-H1581 cells incubated for 48 hrs by MTT assay; type: functional, cell-based; details: NCI-H1581, 48 h
NCI-H226 [4] = test: Induction of cell cycle arrest in human NCI-H226 cells assessed as accumulation of cells at G1 measured after 24 hrs by flow cytometry; type: functional, cell-based
[5] = system: Epidermal growth factor receptor (Homo sapiens), P00533 [T790M]; test: Inhibition of GST-tagged human EGFR T790M mutant expressed in baculovirus at 10 uM using FAM-labelled peptide as substrate pre-incubated for 10 mins followed by substrate addition by mobility shift assay relative to control
NCI-H226 [6] = test: Induction of apoptosis in human NCI-H226 cells assessed as necrotic cells at 5 uM measured after 24 hrs by Annexin-V/propidium iodide staining-based flow cytometric analysis (reference value: 3%); type: functional
NCI-H226 [7] = test: Induction of apoptosis in human NCI-H226 cells assessed as viable cells at 10 uM measured after 24 hrs by Annexin-V/propidium iodide staining-based flow cytometric analysis (reference value: 93.4%); type: functional; details: NCI-H226, 24 h, read-out: Activity
[8] = Induction of apoptosis in gefitinib-insensitive human HCC827GR cells assessed as early apoptotic cells at 1 uM measured after 24 hrs by Annexin-V/propidium iodide staining-based flow cytometric analysis (reference value: 1.9%); type: functional
[9] = Induction of apoptosis in gefitinib-insensitive human HCC827GR cells assessed as late apoptotic cells at 1 uM measured after 24 hrs by Annexin-V/propidium iodide staining-based flow cytometric analysis (reference value: 1.5%); type: functional
[10] = Induction of apoptosis in gefitinib-insensitive human HCC827GR cells assessed as late apoptotic cells at 5 uM measured after 24 hrs by Annexin-V/propidium iodide staining-based flow cytometric analysis (reference value: 1.5%); type: functional
[11] = Induction of apoptosis in gefitinib-insensitive human HCC827GR cells assessed as viable cells at 5 uM measured after 24 hrs by Annexin-V/propidium iodide staining-based flow cytometric analysis (reference value: 90.8%); type: functional; details: read-out: Activity
[12] = Induction of apoptosis in gefitinib-insensitive human HCC827GR cells assessed as necrotic cells at 2.5 uM measured after 24 hrs by Annexin-V/propidium iodide staining-based flow cytometric analysis (reference value: 5.8%); type: functional
[13] = target: T1, Epidermal growth factor receptor; test: Inhibition of EGFR in gefitinib-insensitive human HCC827GR cells assessed as reduction in EGF-induced EGFR phosphorylation upto 10 uM measured after 2 hrs by western blot analysis
[14] = Induction of apoptosis in gefitinib-insensitive human HCC827GR cells assessed as viable cells at 10 uM measured after 24 hrs by Annexin-V/propidium iodide staining-based flow cytometric analysis (reference value: 90.8%); type: functional; details: read-out: Activity
[15] = Induction of apoptosis in gefitinib-insensitive human HCC827GR cells assessed as late apoptotic cells at 10 uM measured after 24 hrs by Annexin-V/propidium iodide staining-based flow cytometric analysis (reference value: 1.5%); type: functional
[16] = Induction of apoptosis in gefitinib-insensitive human HCC827GR cells assessed as necrotic cells at 10 uM measured after 24 hrs by Annexin-V/propidium iodide staining-based flow cytometric analysis (reference value: 5.8%); type: functional
[17] = target: Fibroblast growth factor receptor 2 (Homo sapiens) (UniProt P21802); test: Inhibition of N-terminal GST tagged human FGFR2 cytoplasmic domain (399 to 821 AA) expressed in baculovirus at 10 uM using FAM-labelled peptide as substrate pre-incubated for 10 mins followed by substrate addition by mobility shift assay relative to control
[18] = target: Fibroblast growth factor receptor 4 (Homo sapiens) (UniProt P22455); test: Inhibition of N-terminal GST tagged human FGFR4 cytoplasmic domain (460 to 802 AA) expressed in baculovirus at 10 uM using FAM-labelled peptide as substrate pre-incubated for 10 mins followed by substrate addition by mobility shift assay relative to control
Fibroblast growth factor receptor 4 (Homo sapiens), sequence (P22455 22-802 limits assumed): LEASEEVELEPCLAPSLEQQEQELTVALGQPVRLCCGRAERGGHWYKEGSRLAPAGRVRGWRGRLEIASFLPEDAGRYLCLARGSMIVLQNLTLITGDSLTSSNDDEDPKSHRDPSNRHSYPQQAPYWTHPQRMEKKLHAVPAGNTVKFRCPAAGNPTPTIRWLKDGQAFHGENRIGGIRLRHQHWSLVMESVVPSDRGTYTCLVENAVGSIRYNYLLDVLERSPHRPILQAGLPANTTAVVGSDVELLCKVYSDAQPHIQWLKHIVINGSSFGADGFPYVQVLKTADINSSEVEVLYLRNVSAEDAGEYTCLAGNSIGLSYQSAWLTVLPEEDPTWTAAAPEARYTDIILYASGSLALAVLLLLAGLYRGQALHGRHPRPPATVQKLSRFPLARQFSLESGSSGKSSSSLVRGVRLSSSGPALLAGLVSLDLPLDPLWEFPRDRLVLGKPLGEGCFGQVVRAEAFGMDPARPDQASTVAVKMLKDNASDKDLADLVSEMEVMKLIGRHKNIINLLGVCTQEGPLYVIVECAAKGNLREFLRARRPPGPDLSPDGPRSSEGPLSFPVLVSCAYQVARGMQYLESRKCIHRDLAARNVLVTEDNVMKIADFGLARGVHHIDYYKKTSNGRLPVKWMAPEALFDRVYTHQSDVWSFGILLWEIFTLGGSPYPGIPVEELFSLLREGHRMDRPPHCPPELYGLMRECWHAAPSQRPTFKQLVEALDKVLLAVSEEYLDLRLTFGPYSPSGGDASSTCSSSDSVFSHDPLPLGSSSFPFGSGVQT

[19] = target: Tyrosine-protein kinase JAK2 (Homo sapiens) (UniProt O60674); test: Inhibition of N-terminal GST tagged human JAK2 catalytic domain (826 to 1132 AA) expressed in baculovirus at 10 uM using FAM-labelled peptide as substrate pre-incubated for 10 mins followed by substrate addition by mobility shift assay relative to control
Tyrosine-protein kinase JAK2 (Homo sapiens), sequence (O60674 whole entry, the tested form may be a part): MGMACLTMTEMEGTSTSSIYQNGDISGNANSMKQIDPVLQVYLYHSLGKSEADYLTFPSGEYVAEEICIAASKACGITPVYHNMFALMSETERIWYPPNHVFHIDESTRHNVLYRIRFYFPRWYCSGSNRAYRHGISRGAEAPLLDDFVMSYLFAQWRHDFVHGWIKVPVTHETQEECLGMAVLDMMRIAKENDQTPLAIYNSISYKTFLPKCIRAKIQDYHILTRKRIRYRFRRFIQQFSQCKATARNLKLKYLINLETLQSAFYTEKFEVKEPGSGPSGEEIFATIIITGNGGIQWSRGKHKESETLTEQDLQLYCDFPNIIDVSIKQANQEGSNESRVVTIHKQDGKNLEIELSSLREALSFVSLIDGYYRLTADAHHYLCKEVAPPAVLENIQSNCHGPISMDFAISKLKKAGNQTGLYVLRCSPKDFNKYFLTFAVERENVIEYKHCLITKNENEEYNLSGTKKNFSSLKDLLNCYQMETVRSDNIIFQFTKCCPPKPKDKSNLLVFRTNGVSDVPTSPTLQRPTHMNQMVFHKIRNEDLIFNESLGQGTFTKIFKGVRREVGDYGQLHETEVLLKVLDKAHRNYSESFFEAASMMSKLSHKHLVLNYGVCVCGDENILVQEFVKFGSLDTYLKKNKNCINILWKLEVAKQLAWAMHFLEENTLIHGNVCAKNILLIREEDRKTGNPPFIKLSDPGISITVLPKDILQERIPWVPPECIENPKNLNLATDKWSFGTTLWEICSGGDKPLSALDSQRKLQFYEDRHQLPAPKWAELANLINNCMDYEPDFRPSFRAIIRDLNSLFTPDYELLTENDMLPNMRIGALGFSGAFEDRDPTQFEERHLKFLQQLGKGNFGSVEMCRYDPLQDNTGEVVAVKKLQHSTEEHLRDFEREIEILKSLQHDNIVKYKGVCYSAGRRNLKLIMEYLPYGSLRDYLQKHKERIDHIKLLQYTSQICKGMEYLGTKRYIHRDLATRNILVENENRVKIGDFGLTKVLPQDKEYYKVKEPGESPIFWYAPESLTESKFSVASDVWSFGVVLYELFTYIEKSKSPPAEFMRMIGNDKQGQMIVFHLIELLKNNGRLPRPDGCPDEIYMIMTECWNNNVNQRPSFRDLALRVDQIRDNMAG

[20] = target: RAC-beta serine/threonine-protein kinase (Homo sapiens) (UniProt P31751); test: Inhibition of N-terminal GST tagged human AKT2 catalytic domain (120 to 481 AA) expressed in baculovirus at 10 uM using FAM-labelled peptide as substrate pre-incubated for 10 mins followed by substrate addition by mobility shift assay relative to control
RAC-beta serine/threonine-protein kinase (Homo sapiens), sequence (P31751 whole entry, the tested form may be a part): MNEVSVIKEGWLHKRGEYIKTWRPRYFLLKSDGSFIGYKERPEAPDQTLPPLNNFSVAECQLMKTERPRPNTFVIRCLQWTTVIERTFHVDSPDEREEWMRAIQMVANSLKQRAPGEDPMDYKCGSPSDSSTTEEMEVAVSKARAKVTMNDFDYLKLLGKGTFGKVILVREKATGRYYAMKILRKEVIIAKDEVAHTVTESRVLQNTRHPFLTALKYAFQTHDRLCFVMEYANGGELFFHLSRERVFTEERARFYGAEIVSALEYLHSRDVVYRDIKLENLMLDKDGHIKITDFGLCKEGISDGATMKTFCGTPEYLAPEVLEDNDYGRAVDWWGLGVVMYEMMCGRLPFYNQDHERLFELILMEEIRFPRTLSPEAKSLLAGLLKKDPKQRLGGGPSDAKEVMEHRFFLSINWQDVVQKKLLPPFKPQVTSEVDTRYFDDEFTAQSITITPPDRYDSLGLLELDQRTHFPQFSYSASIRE

[21] = target: Mitogen-activated protein kinase 3 (Homo sapiens) (UniProt P27361); test: Inhibition of full length N-terminal GST-tagged human ERK1 (1 to 379 AA) expressed in Escherichia coli at 10 uM using FAM-labelled peptide as substrate pre-incubated for 10 mins followed by substrate addition by mobility shift assay relative to control
[22] = target: Vascular endothelial growth factor receptor 1 (Homo sapiens) (UniProt P17948); test: Inhibition of N-terminal GST tagged human FLT1 cytoplasmic domain (781 to 1338 AA) expressed in baculovirus at 10 uM using FAM-labelled peptide as substrate pre-incubated for 10 mins followed by substrate addition by mobility shift assay relative to control
Vascular endothelial growth factor receptor 1 (Homo sapiens), sequence (P17948 whole entry, the tested form may be a part): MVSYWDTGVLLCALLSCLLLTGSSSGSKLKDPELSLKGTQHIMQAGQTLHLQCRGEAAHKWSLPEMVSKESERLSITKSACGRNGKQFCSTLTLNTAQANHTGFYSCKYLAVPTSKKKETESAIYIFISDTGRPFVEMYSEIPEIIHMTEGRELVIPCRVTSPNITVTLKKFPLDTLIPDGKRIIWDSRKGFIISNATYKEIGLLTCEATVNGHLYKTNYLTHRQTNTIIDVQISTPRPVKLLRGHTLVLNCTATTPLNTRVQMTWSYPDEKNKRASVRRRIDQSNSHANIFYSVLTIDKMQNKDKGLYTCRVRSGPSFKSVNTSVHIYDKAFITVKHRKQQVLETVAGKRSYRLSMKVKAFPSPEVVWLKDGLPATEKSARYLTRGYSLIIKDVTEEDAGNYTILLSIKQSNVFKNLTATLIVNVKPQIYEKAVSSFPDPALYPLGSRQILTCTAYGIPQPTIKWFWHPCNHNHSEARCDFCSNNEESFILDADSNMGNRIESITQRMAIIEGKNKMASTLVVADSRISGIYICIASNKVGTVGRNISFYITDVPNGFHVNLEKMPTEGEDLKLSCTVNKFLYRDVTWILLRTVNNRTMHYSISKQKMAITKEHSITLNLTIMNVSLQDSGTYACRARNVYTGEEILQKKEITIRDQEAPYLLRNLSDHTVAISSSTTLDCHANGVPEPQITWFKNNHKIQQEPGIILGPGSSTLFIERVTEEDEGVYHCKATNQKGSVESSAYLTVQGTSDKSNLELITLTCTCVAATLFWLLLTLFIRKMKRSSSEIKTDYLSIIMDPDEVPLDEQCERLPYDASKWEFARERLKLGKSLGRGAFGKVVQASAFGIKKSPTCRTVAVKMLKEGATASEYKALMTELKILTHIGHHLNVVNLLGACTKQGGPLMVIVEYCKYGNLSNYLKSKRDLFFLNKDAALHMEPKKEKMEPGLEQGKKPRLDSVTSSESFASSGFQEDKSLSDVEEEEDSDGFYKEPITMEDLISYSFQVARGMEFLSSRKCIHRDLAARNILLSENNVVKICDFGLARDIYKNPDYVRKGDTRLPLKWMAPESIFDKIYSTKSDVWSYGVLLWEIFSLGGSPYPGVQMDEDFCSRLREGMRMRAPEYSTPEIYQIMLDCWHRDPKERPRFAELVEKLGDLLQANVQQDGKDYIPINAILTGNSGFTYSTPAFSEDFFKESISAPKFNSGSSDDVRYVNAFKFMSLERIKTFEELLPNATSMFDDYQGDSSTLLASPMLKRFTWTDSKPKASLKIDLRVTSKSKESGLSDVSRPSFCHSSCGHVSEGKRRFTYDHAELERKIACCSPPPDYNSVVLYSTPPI

[23] = target: CDK7/Cyclin H/MNAT1 (Homo sapiens) (UniProt P51946+P50613+P51948); test: Inhibition of full length N-terminal GST-tagged human CDK7 (1 to 346 AA) coexpressed with CyclinH (1 to 323 AA)and MAT1 (1 to 309) in baculovirus at 10 uM using FAM-labelled peptide as substrate pre-incubated for 10 mins followed by substrate addition by mobility shift assay relative to control; type: protein-complex assay
[24] = target: CDK2/Cyclin A2 (Homo sapiens) (UniProt P24941+P20248); test: Inhibition of CDK2/cyclin A2 (unknown origin) at 10 uM using FAM-labelled peptide as substrate pre-incubated for 10 mins followed by substrate addition by mobility shift assay relative to control; type: protein-complex assay
[25] = target: CDK6/cyclin D3 (Homo sapiens) (UniProt P30281+Q00534); test: Inhibition of N-terminal GST tagged truncated human CDK6 (1 to 326 AA) coexpressed with CyclinD3 (1 to 292 AA) in baculovirus at 10 uM using FAM-labelled peptide as substrate pre-incubated for 10 mins followed by substrate addition by mobility shift assay relative to control; type: protein-complex assay

Question: What does the source list for COc1ccc(OC)c(Nc2cc(NC(=O)Nc3c(Cl)cccc3Cl)ncn2)c1?
Answer: inhibition [1]: 92.7%; inhibition at 10 µM (NCI-H1581 [2]): 93.1%; IC50 (PC-9): 1.34 µM; IC50 (NCI-H520): 3.03 µM; IC50 (NCI-H1581 [3]): 2.53 µM; Activity (NCI-H226 [4]): Active; inhibition [5]: 86.8%; Activity (NCI-H226 [6]): 5.2%; viability at 10 µM (NCI-H226 [7]): 71.9%; Activity [8]: 0.9%; Activity [9]: 16%; Activity [10]: 25.3%; viability at 5 µM [11]: 68.9%; Activity [12]: 4.5%; inhibition [13]: Active; viability at 10 µM [14]: 51.5%; Activity [15]: 30.1%; Activity [16]: 5.4%; inhibition [17]: 82.5%; inhibition [18]: 12.3%; inhibition [19]: 13.9%; inhibition [20]: 12.7%; inhibition [21]: 8.2%; inhibition [22]: 27.6%; inhibition [23]: 22.3%; inhibition [24]: 4.4%; inhibition [25]: 9.31%
